Tests used:
[1] = system: NOD mice; settings: cited from earlier work
[2] = system: NOD scid/scid mice; assay: Adoptive transfer of splenocytes from vaccinated NOD mice into NOD scid/scid mice; assay type: in vivo; settings: for effect on incidence of diabetes in NOD scid/scid adoptive transfer model (in words): antigen in IFA; for scid/scid recipient mice that became diabetic: antigen in IFA sc. to NOD donors at 3, 5 and 7 weeks, splenocytes cotransferred with untreated NOD splenocytes, by the 75th day after adoptive transfer, 16 mice/group
Protocol: To test the efficacy of autoantigens in IFA, NOD mice were vaccinated with human recombinant GAD65 (300 μg/mice) in IFA (total volume 0.1 ml), human insulin B-chain (20.1 μg/mice) in IFA (total volume 0.1 ml) and sham protein (Lysozyme, 200 μg/mice) in IFA (total volume 0.1 ml) sc. in the inguinal areas at 3, 5 and 7 weeks of age. At 9 weeks of age the treated mice were sacrificed and their splenocytes (1.0×10^7 cells) were cotransfered with splenocytes from 9 weeks old untreated NOD mice (1.0×10^7 cells) into 9-11 weeks old NOD scid/scid mice (16 mice/group; total 2.0×10^7 cells/mice). Control group received splenocytes (2.0×10^7 cells/mice) from untreated NOD mice.

[3] = system: NOD mice; assay: Histological insulitis grading of pancreases of vaccinated NOD mice; assay type: in vivo; settings: antigen in IFA; for mean insulitis score: 0-4 scale, pancreases at the time of adoptive transfer (9 weeks of age)
Protocol: Histological studies were performed on the pancreases of the vaccinated mice at the time of adoptive transfer.

[4] = system: human; settings: pilot human trial; Keller et al. 1993; cited from earlier work
[5] = system: mice; settings: mouse, in vivo
Description: In our animal study where we used IFA with human insulin B-chain or with human GAD65 protein, the mice were carefully observed for any adverse effect.

Substance	effect on incidence of diabetes in NOD scid/scid adoptive transfer model (in words) [2]	scid/scid recipient mice that became diabetic [2]	mean insulitis score [3]	also measured
human recombinant insulin B-chain: Literature recombinant human insulin B-chain given in IFA (Ramiya et al.) [reference compound]	–	–	–	cytokine pattern in NOD mice islets ([1]; in IFA, Ramiya et al. 1996): Th2 cytokine pattern
Lysozyme [reference compound]	not effective	all	2.64	–
Insulin: β-cell specific major protein, moderately immunogenic when used alone	–	–	–	development of diabetes mellitus [4]: delaying the development of diabetes mellitus
GAD65: Human recombinant GAD65, 585 amino acid β-cell autoantigen (SEQ ID NO:2), given in IFA	significantly reduces the incidence of diabetes	4/16	1.31	effect on insulitis in NOD mice (in words) [3]: reduced insulitis; adverse effects, general and local [5]: well tolerated without any detectable side effects; Th1/Th2 balance ([1]; nasal administration, Tian et al. 1996): change in Th1/Th2 balance in favor of Th2 ‘protective’ cells response
